Structures can show the parent of a compound that is named as a salt. Positions of bridges follow the written chain, without caps; N, C: chain ends. Non-standard residues stand in square brackets, D forms with d. Residues, ends and D or L forms follow the SMILES beside them. hArg = N=C(N)NCCCC[C@H](N)C(=O)O; Mpa = O=C(O)CCS
Test: in vitro
Conditions: rat, gh3-tre-luc cells

| SMILES | CC50 at 24 h (AC50 (uM) modified / 1000) [µM] | further results |
| --- | --- | --- |
| COCCCOCCCOC [Dipropylene glycol dimethyl ether] | > 90 | – |
| COc1ccc([C@@H]2Sc3ccccc3N(CCN(C)C)C(=O)[C@@H]2OC(C)=O)cc1 [(+)-Diltiazem] | 22.9 | – |
| C=C(C)c1cccc(C(C)(C)N=C=O)c1 [1-(2-Isocyanatopropan-2-yl)-3-(prop-1-en-2-yl)benzene] | > 90 | – |
| C/C(=N\O)c1ccc(OCC(=O)N2CCCCC2)cc1 [Pifoxime] | > 50 | – |
| Cc1ccc(S(=O)(=O)NCl)cc1 [Chloramine T hydrate (1:x)] | > 80 | – |
| CN1C(C(=O)Nc2ccccn2)=C(O)c2sc(Cl)cc2S1(=O)=O [Lornoxicam] | > 50 | – |
| Nc1cccc([N+](=O)[O-])c1 [3-Nitroaniline] | > 90 | – |
| C1CSCCS1 [1,4-Dithiane] | > 90 | – |
| O=C1CN=C(c2ccccc2)c2cc(Cl)ccc2N1 [Desmethyldiazepam] | > 50 | – |
| CCOC(=O)C(C)(C)Oc1ccc(Cl)cc1 [Clofibrate] | > 90 | – |
| Nc1cc(Cl)ccc1O [2-Amino-4-chlorophenol] | 30.7 | – |
| c1nc[nH]n1 [1,2,4-Triazole, sodium salt] | > 90 | – |
| O=C1CCCN1 [2-Pyrrolidinone] | > 90 | – |
| COc1cc(C=O)cc2c1[C@H](COC(N)=O)[C@]1(OC(C)=O)ON2C[C@H]2[C@@H]1N2C(C)=O [PharmaGSID_48166] | 1.23 | – |
| COCc1ccc(COC)cc1 [1,4-Bis(methoxymethyl)benzene] | > 90 | – |
| CCOP(=S)(OCC)SCSCC [Phorate] | – | CC50 at 24 h (AC50 (uM) modified / 1000, Tox21_110001=Tox21_300398, viability, 1 nM T3 present, 24 h): > 90 µM |
| N=C(N)NCCCC[C@@H]1NC(=O)CCSSC[C@@H](C(N)=O)NC(=O)[C@@H]2CCCN2C(=O)[C@H](Cc2c[nH]c3ccccc23)NC(=O)[C@H](CC(=O)O)NC(=O)CNC1=O [Eptifibatide] ([Mpa][hArg]GDWPC-NH2; disulfide 1-7) | > 50 | – |
| NCCCC[C@H](NC(=O)[C@@H]1CCCN1C(=O)[C@@H]1CSSC[C@H](NC(=O)CNC(=O)CNC(=O)CN)C(=O)N[C@@H](Cc2ccc(O)cc2)C(=O)N[C@@H](Cc2ccccc2)C(=O)N[C@@H](CCC(N)=O)C(=O)N[C@@H](CC(N)=O)C(=O)N1)C(=O)NCC(N)=O [Terlipressin] (H-GGGCYFQNCPKG-NH2; disulfide 4-9) | > 50 | – |
| CN1CCN(c2cc3c(cc2F)c(=O)c(C(=O)O)cn3-c2ccc(F)cc2)CC1 [Difloxacin hydrochloride] | > 50 | – |
| CC(C)=CCC1=C(O)C(=O)c2ccccc2C1=O [Lapachol] | 10.7 | – |
| O=C1CCN(c2ccccc2)N1 [3-Pyrazolidinone,1-phenyl-] | > 90 | – |
| COC(=O)C1=C(C)NC(C)=C(C(=O)O[C@H]2CCN(Cc3ccccc3)C2)[C@H]1c1cccc([N+](=O)[O-])c1 [Barnidipine hydrochloride] | 16.3 | – |
| O=S1(=O)OCC2C(CO1)C1(Cl)C(Cl)=C(Cl)C2(Cl)C1(Cl)Cl (centres unmarked) [Endosulfan sulfate] | – | CC50 at 24 h (AC50 (uM) modified / 1000, Tox21_110001=Tox21_300782, viability, 1 nM T3 present, 24 h): 56.1 µM |
| CN1CCC[C@@H]1c1cccnc1 [D-Nicotine] | > 50 | – |
| CCOC(=O)c1ccccc1 [Ethyl benzoate] | > 90 | – |

| SMILES | CC50 at 24 h (AC50 (uM) modified / 1000) [µM] | further results |
| --- | --- | --- |
| CC/C=C/CCCCCCCCC1CC(=O)OC1=O (centres unmarked) [(Tetrapropenyl)succinic anhydride] | > 90 | – |
| O=[N+]([O-])c1cc(C(F)(F)F)c(Cl)c([N+](=O)[O-])c1Cl [2,4-Dichloro-1,3-dinitro-5-(trifluoromethyl)benzene] | 2.31 | – |
| CC(C)c1nnc2ccc(-c3ocnc3-c3cc(F)ccc3F)cn12 [CP-863187] | > 90 | – |
| Nc1cc(C(=O)O)ccc1Cl [3-Amino-4-chlorobenzoic acid] | > 90 | – |
| O=C(O)[C@H](CC(=O)N1C[C@H]2CCCC[C@H]2C1)Cc1ccccc1 [Mitiglinide calcium dihydrate] | > 50 | – |
| CCNP(=S)(OC)O/C(C)=C/C(=O)OC(C)C (centres unmarked) [Propetamphos] | – | CC50 at 24 h (AC50 (uM) modified / 1000, Tox21_110001=Tox21_300863, viability, 1 nM T3 present, 24 h): > 90 µM |
| Cc1cc(C)c(NC(=O)C[C@H](CC(=O)O)c2cccc3ccccc23)c(C(=O)N2CCC3(CCCC3)CC2)c1 [Itriglumide sodium] | 26.9 | – |
| O=C(N[C@H]1CN2CCC1CC2)c1cc2ccoc2cn1 [PHA-00543613] | > 90 | – |
| CC1(C)C(=O)N(Cl)C(=O)N1Br [1-Bromo-3-chloro-5,5-dimethylhydantoin] | > 90 | – |
| O=[N+]([O-])c1ccc2[nH]cnc2c1 [6-Nitrobenzimidazole] | > 90 | – |
| SCCc1cnccn1 [Pyrazineethanethiol] | > 90 | – |
| CC(C)OCCO [2-Isopropoxyethanol] | > 90 | – |
| CO/N=C(\C(=O)N[C@@H]1C(=O)N2C(C(=O)[O-])=C(C[n+]3cccc4c3CCCC4)CS[C@H]12)c1csc(N)n1 [Cefquinome sulfate] | > 50 | – |
| C=CCN1C[C@H](C(=O)N(CCCN(C)C)C(=O)NCC)C[C@@H]2c3cccc4[nH]cc(c34)C[C@H]21 [Cabergoline] | 5.04 | – |
| CCN(CC)CCNc1ccc(CNC=O)c2sc3ccc(OC)cc3c(=O)c12 [SR271425] | 11.7 | – |
| O=C1CCc2ccc(OCCCCN3CCN(c4cccc(Cl)c4Cl)CC3)cc2N1 [Aripiprazole] | 11.8 | – |
| COC(=O)c1ccc(C(=O)OC)c(C(=O)OC)c1 [Trimethyl benzene-1,2,4-tricarboxylate] | > 90 | – |
| O=C1CCC(=O)N1CO [N-Hydroxymethylsuccinimide] | > 50 | – |
| CCC(CC)(CC(=O)Nc1cccc(/C=C/c2nc(C3CCC3)cs2)c1)C(=O)O [Cinalukast] | > 50 | – |
| CCN(CC)CCOc1ccc(C(O)(Cc2ccc(Cl)cc2)c2ccc(C)cc2)cc1 (centres unmarked) [Triparanol] | 8.76 | – |
| Cc1ccccc1N1C(=O)c2cc(S(N)(=O)=O)c(Cl)cc2NC1C (centres unmarked) [Metolazone] | > 50 | – |
| CCCCCCCCCCCC[N+](C)(C)CCCCCCCCCCCC [Didodecyldimethylammonium bromide] | 12.2 | – |
| Cc1cccc(O)c1 [m-Cresol] | > 100 | – |
| CC(C)C(C)(C)C(C)(C)C(C)(C)S [tert-Dodecanethiol] | > 90 | – |
| CN[C@]1(c2ccccc2Cl)CCCCC1=O [(S)-Ketamine] | > 50 | – |

| SMILES | CC50 at 24 h (AC50 (uM) modified / 1000) [µM] | further results |
| --- | --- | --- |
| C/C=C/C(=O)CC [4-Hexen-3-one] | > 20 | – |
| CCCCCCCCCC(=O)O[C@H]1CC[C@H]2[C@@H]3CCC4=CC(=O)CC[C@]4(C)[C@H]3CC[C@]12C [Testosterone decanoate] | – | CC50 at 24 h (AC50 (uM) modified / 1000, Tox21_110001=Tox21_111863, viability, 1 nM T3 present, 24 h): > 50 µM |
| C=CC(=C)CCC=C(C)C [Myrcene] | > 90 | – |
| O=C(O)[C@H](O)[C@@H](O)[C@H](O[C@@H]1O[C@H](CO)[C@H](O)[C@H](O)[C@H]1O)[C@H](O)CO [Lactobionic acid] | > 20 | – |
| CCCOC(=O)c1ccccc1 [Propyl benzoate] | > 90 | – |
| CC(CO)CO [2-Methylpropane-1,3-diol] | > 100 | – |
| CC(=O)CCC(C)=O [2,5-Hexanedione] | > 90 | – |
| CC(C)CN(C[C@@H](O)[C@H](Cc1ccccc1)NC(=O)O[C@H]1CCOC1)S(=O)(=O)c1ccc(N)cc1 [Amprenavir] | > 50 | – |
| CS(=O)(=O)Nc1cc2occ(NC=O)c(=O)c2cc1Oc1ccccc1 [Iguratimod] | > 50 | – |
| Cc1cc(OI)c(C(C)C)cc1-c1cc(C(C)C)c(OI)cc1C [Thymol iodide] | > 50 | – |
| CCn1cc(C(=O)O)c(=O)c2cnc(N3CCNCC3)nc21 [Pipemidic acid] | > 20 | – |
| COC(=O)N/N=C/c1c[n+]([O-])c2ccccc2[n+]1[O-] [Carbadox] | > 50 | – |
| CCOC(C)OCC [Acetal] | > 90 | – |
| CC1=C(/C=C/C(C)=C/C=C/C(C)=C\C=O)C(C)(C)CCC1 [13-cis-Retinal] | 45.2 | – |
| O=[N+]([O-])c1c(Cl)c(Cl)c(Cl)c(Cl)c1Cl [Pentachloronitrobenzene] | > 90 | – |
| CCCCCCCCCCOCC(O)CN (centres unmarked) [Decominol hydrochloride] | 6.25 | – |
| NC(=O)OCC(O)COc1ccc(Cl)cc1 (centres unmarked) [Chlorphenesin carbamate] | > 20 | – |
| Oc1ccc(Cl)cc1Cc1ccccc1 [Clorophene] | – | CC50 at 24 h (AC50 (uM) modified / 1000, Tox21_110001=Tox21_111146, viability, 1 nM T3 present, 24 h): 23.9 µM; CC50 at 24 h (AC50 (uM) modified / 1000, Tox21_110001=Tox21_202985, viability, 1 nM T3 present, 24 h): 43.2 µM; CC50 at 24 h (AC50 (uM) modified / 1000, Tox21_110001=Tox21_400046, viability, 1 nM T3 present, 24 h): 61.9 µM |
| CO/C=C(/C(=O)OC)c1ccccc1Oc1cc(Oc2ccccc2C#N)ncn1 [Azoxystrobin] | > 100 | – |
| COc1cc([N+](=O)[O-])ccc1N [2-Methoxy-4-nitroaniline] | 40.9 | – |
| CCCCC(CC)COC(=O)CCCCCCCCC(=O)OCC(CC)CCCC (centres unmarked) [Bis(2-ethylhexyl) decanedioate] | > 90 | – |
| C=C(C)CN(CC)c1c([N+](=O)[O-])cc(C(F)(F)F)cc1[N+](=O)[O-] [Ethalfluralin] | > 90 | – |
| NC(=O)OC[C@@H]1[C@H](NC(=O)/C(=N\OCC(=O)O)c2csc(N)n2)C(=O)N1S(=O)(=O)O [Carumonam sodium] | > 50 | – |
| Oc1ccc(Cl)c(Cl)c1Cl [2,3,4-Trichlorophenol] | – | CC50 at 24 h (AC50 (uM) modified / 1000, Tox21_110001=Tox21_200297, viability, 1 nM T3 present, 24 h): > 100 µM |
| C[Si](C)(C)O[Si](C)(C)C [Hexamethyldisiloxane] | > 90 | – |

— PMC6792352, “Limited Chemical Structural Diversity Found to Modulate Thyroid Hormone Receptor in the Tox21 Chemical Library” (Environmental Health Perspectives, 2019)
